Experimental data reported in patent US20180022786A1, “NOVEL SODIUM CHANNEL BLOCKING PEPTIDES AND THE USE THEREOF” (priority 2012, published 2018).
Like-named read-outs stand apart in the source and are kept apart here.

Legend:
Nav1.7 [1] = molecular target: T1, Nav1.7 (Homo sapiens, UniProt Q15858); experiment: cell-based
Target sequence in this assay (Q15858 other isoform, or with tags, fused parts or gaps): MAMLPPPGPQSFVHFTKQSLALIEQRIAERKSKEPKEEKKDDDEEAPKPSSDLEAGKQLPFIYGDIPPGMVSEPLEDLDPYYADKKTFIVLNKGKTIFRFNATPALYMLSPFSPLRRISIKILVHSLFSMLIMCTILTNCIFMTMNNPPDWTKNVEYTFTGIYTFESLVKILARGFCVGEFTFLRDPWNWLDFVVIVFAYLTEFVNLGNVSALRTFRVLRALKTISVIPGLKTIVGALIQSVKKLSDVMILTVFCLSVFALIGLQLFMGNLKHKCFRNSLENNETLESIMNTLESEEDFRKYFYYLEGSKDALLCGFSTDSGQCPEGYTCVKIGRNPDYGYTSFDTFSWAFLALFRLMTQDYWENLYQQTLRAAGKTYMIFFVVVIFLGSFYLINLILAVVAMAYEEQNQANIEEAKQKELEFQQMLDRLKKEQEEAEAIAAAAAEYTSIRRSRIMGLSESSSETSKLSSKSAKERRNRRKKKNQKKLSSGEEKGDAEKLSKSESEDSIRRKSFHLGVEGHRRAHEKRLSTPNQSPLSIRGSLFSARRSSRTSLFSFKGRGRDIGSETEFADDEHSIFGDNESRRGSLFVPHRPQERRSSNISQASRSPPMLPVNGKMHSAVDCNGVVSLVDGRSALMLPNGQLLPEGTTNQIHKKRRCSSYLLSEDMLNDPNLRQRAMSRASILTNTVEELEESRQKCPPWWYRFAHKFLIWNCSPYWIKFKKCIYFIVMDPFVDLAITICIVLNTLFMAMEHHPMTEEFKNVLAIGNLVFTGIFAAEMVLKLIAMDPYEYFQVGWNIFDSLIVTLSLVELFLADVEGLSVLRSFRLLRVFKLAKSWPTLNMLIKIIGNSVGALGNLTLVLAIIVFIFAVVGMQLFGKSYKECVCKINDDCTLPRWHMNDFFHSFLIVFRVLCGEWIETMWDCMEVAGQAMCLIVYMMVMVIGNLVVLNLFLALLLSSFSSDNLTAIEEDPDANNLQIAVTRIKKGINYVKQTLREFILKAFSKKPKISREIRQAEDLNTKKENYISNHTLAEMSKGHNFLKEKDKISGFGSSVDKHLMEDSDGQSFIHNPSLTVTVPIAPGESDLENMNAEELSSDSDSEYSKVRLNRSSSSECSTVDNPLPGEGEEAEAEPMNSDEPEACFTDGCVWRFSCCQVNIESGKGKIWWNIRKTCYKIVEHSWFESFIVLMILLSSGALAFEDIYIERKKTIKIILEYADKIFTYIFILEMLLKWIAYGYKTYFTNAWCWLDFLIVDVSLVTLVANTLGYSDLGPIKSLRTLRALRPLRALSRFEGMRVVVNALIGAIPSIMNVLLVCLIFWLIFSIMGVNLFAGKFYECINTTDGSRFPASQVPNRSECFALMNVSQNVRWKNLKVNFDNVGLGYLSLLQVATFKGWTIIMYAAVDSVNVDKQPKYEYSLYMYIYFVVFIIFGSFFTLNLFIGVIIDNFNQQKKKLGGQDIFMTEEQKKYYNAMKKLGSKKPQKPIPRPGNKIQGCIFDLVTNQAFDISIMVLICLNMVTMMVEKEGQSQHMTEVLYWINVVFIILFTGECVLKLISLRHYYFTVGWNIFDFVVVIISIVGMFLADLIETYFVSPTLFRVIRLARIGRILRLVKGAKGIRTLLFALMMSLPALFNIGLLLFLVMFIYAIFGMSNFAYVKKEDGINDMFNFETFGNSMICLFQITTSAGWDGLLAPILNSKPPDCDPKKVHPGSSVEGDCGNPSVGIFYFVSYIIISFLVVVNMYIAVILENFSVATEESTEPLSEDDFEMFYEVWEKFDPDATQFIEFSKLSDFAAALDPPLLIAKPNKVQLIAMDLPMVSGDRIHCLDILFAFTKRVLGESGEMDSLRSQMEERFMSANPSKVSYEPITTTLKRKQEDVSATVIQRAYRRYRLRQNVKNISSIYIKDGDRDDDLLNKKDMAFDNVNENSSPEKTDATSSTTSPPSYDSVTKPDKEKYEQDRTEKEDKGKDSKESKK

Nav1.2 [2] = molecular target: T2, Nav1.2 (Rattus norvegicus, UniProt P04775); experiment: cell-based; details: EP (electrophysiology)
Nav1.2 [3] = molecular target: Nav1.2 (Homo sapiens, UniProt Q99250); details: read-out: TTX IC50; cited from earlier work
Nav1.1 = Nav1.1 (Homo sapiens, UniProt P35498); details: read-out: TTX IC50; cited from earlier work
Nav1.8 = Nav1.8 (Homo sapiens, UniProt Q9Y5Y9); details: read-out: TTX IC50; cited from earlier work
Nav1.9 = Nav1.9 (Homo sapiens, UniProt Q9UI33); details: read-out: TTX IC50; cited from earlier work
Nav1.3 = Nav1.3 (Homo sapiens, UniProt Q9NY46); details: read-out: TTX IC50; cited from earlier work
Nav1.6 = Nav1.6 (Homo sapiens, UniProt Q9UQD0); details: read-out: TTX IC50; cited from earlier work
Nav1.2 [4] = molecular target: T2, Nav1.2; details: cited from earlier work
Nav1.7 [5] = molecular target: T1, Nav1.7; details: Table 2, natural toxins, from WO 2012/004664 A2; cited from earlier work
Target sequence in this assay (Q15858 whole entry): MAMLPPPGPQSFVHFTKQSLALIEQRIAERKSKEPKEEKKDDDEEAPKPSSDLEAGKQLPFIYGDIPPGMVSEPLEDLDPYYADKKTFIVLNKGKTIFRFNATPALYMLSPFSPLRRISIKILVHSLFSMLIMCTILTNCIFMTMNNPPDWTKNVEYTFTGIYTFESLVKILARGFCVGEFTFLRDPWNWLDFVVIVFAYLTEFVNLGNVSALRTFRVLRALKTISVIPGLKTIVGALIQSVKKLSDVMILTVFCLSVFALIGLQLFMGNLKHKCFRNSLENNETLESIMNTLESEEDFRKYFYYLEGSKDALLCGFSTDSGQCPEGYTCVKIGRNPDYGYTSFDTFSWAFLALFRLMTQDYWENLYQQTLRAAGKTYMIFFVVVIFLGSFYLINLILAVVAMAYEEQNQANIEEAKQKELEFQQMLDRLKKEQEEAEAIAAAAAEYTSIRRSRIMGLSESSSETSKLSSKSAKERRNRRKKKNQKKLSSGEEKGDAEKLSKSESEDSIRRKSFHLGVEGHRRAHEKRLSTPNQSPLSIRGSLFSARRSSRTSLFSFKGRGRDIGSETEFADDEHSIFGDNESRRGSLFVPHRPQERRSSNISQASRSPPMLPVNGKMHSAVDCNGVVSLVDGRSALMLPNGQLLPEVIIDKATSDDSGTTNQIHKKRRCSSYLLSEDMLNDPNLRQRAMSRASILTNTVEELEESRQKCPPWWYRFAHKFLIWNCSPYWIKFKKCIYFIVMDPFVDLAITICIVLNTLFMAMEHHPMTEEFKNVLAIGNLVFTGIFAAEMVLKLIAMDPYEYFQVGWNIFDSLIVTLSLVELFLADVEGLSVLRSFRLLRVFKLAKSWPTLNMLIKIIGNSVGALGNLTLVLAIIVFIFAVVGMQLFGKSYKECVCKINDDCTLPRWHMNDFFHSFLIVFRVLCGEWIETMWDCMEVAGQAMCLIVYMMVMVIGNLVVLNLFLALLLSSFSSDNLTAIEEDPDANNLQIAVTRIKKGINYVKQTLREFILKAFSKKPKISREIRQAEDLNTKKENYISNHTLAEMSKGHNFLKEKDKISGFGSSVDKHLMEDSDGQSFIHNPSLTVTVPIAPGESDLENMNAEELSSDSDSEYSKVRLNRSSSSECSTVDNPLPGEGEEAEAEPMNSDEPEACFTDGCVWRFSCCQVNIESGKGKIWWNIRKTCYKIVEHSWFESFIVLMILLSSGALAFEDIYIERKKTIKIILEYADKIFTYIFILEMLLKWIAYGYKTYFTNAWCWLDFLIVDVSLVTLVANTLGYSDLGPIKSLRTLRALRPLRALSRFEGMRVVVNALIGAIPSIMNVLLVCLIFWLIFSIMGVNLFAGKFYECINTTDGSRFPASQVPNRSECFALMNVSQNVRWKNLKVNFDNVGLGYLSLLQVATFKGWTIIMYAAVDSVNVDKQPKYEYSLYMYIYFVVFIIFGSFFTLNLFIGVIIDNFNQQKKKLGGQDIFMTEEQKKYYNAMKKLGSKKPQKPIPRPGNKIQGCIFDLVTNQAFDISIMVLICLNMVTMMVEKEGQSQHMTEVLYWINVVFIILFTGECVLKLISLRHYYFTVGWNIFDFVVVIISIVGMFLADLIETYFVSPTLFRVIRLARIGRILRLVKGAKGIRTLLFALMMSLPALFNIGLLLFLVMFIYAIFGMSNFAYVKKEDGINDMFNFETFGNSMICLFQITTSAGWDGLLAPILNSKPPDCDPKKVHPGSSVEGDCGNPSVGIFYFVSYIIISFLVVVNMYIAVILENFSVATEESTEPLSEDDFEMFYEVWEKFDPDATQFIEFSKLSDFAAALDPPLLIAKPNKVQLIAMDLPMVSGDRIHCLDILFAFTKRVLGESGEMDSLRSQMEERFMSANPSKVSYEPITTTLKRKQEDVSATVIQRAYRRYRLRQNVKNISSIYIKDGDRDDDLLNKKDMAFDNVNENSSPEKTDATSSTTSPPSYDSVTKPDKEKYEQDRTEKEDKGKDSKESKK

[6] = FLIPR, read-out: Nav1.7 IC50 FLIPR
[7] = Table 2, natural toxins, from WO 2012/004664 A2

Work on `CSCC[C@@H]1NC(=O)CNC(=O)[C@H](CCC(=O)O)NC(=O)[C@@H]2CSSC[C@H](NC(=O)[C@@H](N)Cc3ccc(O)cc3)C(=O)N[C@@H](CCC(N)=O)C(=O)N[C@@H](CCCCN)C(=O)N[C@@H](Cc3c[nH]c4ccccc34)C(=O)N[C@@H](CCSC)C(=O)N[C@@H](Cc3c[nH]c4ccccc34)C(=O)N[C@@H]([C@@H](C)O)C(=O)N[C@H]3CSSC[C@H](NC(=O)[C@H](C(C)C)NC1=O)C(=O)N[C@@H](CCCNC(=N)N)C(=O)N[C@@H](CC(C)C)C(=O)N[C@@H](Cc1c[nH]c4ccccc14)C(=O)N[C@H](C(=O)N[C@@H](CCCCN)C(=O)N[C@@H](CCCCN)C(=O)N[C@@H](CCCCN)C(=O)N[C@@H](CC(C)C)C(=O)N[C@H](Cc1c[nH]c4ccccc14)C(=O)NC1CCCCC1)CSSC[C@H](NC(=O)[C@H](CCCCN)NC(=O)[C@H](CCCNC(=N)N)NC(=O)[C@H](CCC(=O)O)NC(=O)[C@H](CO)NC(=O)[C@H](CC(=O)O)NC3=O)C(=O)N2` [Protoxin II (D)-NHcyclohexyl] yielded an IC50 (Nav1.7 [1]; [6]) of 31 nM.
Molecule `CSCC[C@@H]1NC(=O)CNC(=O)[C@H](CCC(=O)O)NC(=O)[C@@H]2CSSC[C@H](NC(=O)[C@@H](N)Cc3ccc(O)cc3)C(=O)N[C@@H](CCC(N)=O)C(=O)N[C@@H](CCCCN)C(=O)N[C@@H](Cc3c[nH]c4ccccc34)C(=O)N[C@@H](CCSC)C(=O)N[C@@H](Cc3c[nH]c4ccccc34)C(=O)N[C@@H]([C@@H](C)O)C(=O)N[C@H]3CSSC[C@H](NC(=O)[C@H](C(C)C)NC1=O)C(=O)N[C@@H](CCCNC(=N)N)C(=O)N[C@@H](CC(C)C)C(=O)N[C@@H](Cc1c[nH]c4ccccc14)C(=O)N[C@H](C(=O)N[C@@H](CCCCN)C(=O)N[C@@H](CCCCN)C(=O)N[C@@H](CCCCN)C(=O)N[C@@H](CC(C)C)C(=O)N[C@@H](Cc1c[nH]c4ccccc14)C(=O)N[C@H](Cc1c[nH]c4ccccc14)C(=O)O)CSSC[C@H](NC(=O)[C@H](CCCCN)NC(=O)[C@H](CCCNC(=N)N)NC(=O)[C@H](CCC(=O)O)NC(=O)[C@H](CO)NC(=O)[C@H](CC(=O)O)NC3=O)C(=O)N2` [Protoxin II-D-Trp] has an IC50 (Nav1.7 [1]; [6]) of 16.5 nM.
`CNC(=O)[C@H](Cc1c[nH]c2ccccc12)NC(=O)[C@H](CC(C)C)NC(=O)[C@H](CCCCN)NC(=O)[C@H](CCCCN)NC(=O)[C@H](CCCCN)NC(=O)[C@@H]1CSSC[C@@H]2NC(=O)[C@H](CCCCN)NC(=O)[C@H](CCCNC(=N)N)NC(=O)[C@H](CCC(=O)O)NC(=O)[C@H](CO)NC(=O)[C@H](CC(=O)O)NC(=O)[C@@H]3CSSC[C@H](NC(=O)[C@H](C(C)C)NC(=O)[C@H](CCSC)NC(=O)CNC(=O)[C@H](CCC(=O)O)NC(=O)[C@H](CSSC[C@H](NC(=O)[C@@H](N)Cc4ccc(O)cc4)C(=O)N[C@@H](CCC(N)=O)C(=O)N[C@@H](CCCCN)C(=O)N[C@@H](Cc4c[nH]c5ccccc45)C(=O)N[C@@H](CCSC)C(=O)N[C@@H](Cc4c[nH]c5ccccc45)C(=O)N[C@@H]([C@@H](C)O)C(=O)N3)NC2=O)C(=O)N[C@@H](CCCNC(=N)N)C(=O)N[C@@H](CC(C)C)C(=O)N[C@@H](Cc2c[nH]c3ccccc23)C(=O)N1` [Protoxin II-NHMe] gave an IC50 (Nav1.7 [1]; [6]) of 64.3 nM.
In the case of `CSCC[C@@H]1NC(=O)CNC(=O)[C@H](CCC(=O)O)NC(=O)[C@@H]2CSSC[C@H](NC(=O)[C@@H](N)Cc3ccc(O)cc3)C(=O)N[C@@H](CCC(N)=O)C(=O)N[C@@H](CCCCN)C(=O)N[C@@H](Cc3c[nH]c4ccccc34)C(=O)N[C@@H](CCSC)C(=O)N[C@@H](Cc3c[nH]c4ccccc34)C(=O)N[C@@H]([C@@H](C)O)C(=O)N[C@H]3CSSC[C@H](NC(=O)[C@H](C(C)C)NC1=O)C(=O)N[C@@H](CCCNC(=N)N)C(=O)N[C@@H](CC(C)C)C(=O)N[C@@H](Cc1c[nH]c4ccccc14)C(=O)N[C@H](C(=O)N[C@@H](CCCCN)C(=O)N[C@@H](CCCCN)C(=O)N[C@@H](CCCCN)C(=O)N[C@@H](CC(C)C)C(=O)N[C@@H](Cc1c[nH]c4ccccc14)C(=O)Nc1ccccc1)CSSC[C@H](NC(=O)[C@H](CCCCN)NC(=O)[C@H](CCCNC(=N)N)NC(=O)[C@H](CCC(=O)O)NC(=O)[C@H](CO)NC(=O)[C@H](CC(=O)O)NC3=O)C(=O)N2` [Protoxin II-NHanaline], the IC50 (Nav1.7 [1]) is reported as 5.1 nM.
`CSCC[C@@H]1NC(=O)CNC(=O)[C@H](CCC(=O)O)NC(=O)[C@@H]2CSSC[C@H](NC(=O)[C@@H](N)Cc3ccc(O)cc3)C(=O)N[C@@H](CCC(N)=O)C(=O)N[C@@H](CCCCN)C(=O)N[C@@H](Cc3c[nH]c4ccccc34)C(=O)N[C@@H](CCSC)C(=O)N[C@@H](Cc3c[nH]c4ccccc34)C(=O)N[C@@H]([C@@H](C)O)C(=O)N[C@H]3CSSC[C@H](NC(=O)[C@H](C(C)C)NC1=O)C(=O)N[C@@H](CCCNC(=N)N)C(=O)N[C@@H](CC(C)C)C(=O)N[C@@H](Cc1c[nH]c4ccccc14)C(=O)N[C@H](C(=O)N[C@@H](CCCCN)C(=O)N[C@@H](CCCCN)C(=O)N[C@@H](CCCCN)C(=O)N[C@@H](CC(C)C)C(=O)N[C@@H](Cc1c[nH]c4ccccc14)C(=O)NC1CCCCC1)CSSC[C@H](NC(=O)[C@H](CCCCN)NC(=O)[C@H](CCCNC(=N)N)NC(=O)[C@H](CCC(=O)O)NC(=O)[C@H](CO)NC(=O)[C@H](CC(=O)O)NC3=O)C(=O)N2` [Protoxin II-NHcyclohexyl] gave an IC50 (Nav1.7 [1]; [6]) of 22 nM.
In the case of `COC(=O)[C@H](Cc1c[nH]c2ccccc12)NC(=O)[C@H](CC(C)C)NC(=O)[C@H](CCCCN)NC(=O)[C@H](CCCCN)NC(=O)[C@H](CCCCN)NC(=O)[C@@H]1CSSC[C@@H]2NC(=O)[C@H](CCCCN)NC(=O)[C@H](CCCNC(=N)N)NC(=O)[C@H](CCC(=O)O)NC(=O)[C@H](CO)NC(=O)[C@H](CC(=O)O)NC(=O)[C@@H]3CSSC[C@H](NC(=O)[C@H](C(C)C)NC(=O)[C@H](CCSC)NC(=O)CNC(=O)[C@H](CCC(=O)O)NC(=O)[C@H](CSSC[C@H](NC(=O)[C@@H](N)Cc4ccc(O)cc4)C(=O)N[C@@H](CCC(N)=O)C(=O)N[C@@H](CCCCN)C(=O)N[C@@H](Cc4c[nH]c5ccccc45)C(=O)N[C@@H](CCSC)C(=O)N[C@@H](Cc4c[nH]c5ccccc45)C(=O)N[C@@H]([C@@H](C)O)C(=O)N3)NC2=O)C(=O)N[C@@H](CCCNC(=N)N)C(=O)N[C@@H](CC(C)C)C(=O)N[C@@H](Cc2c[nH]c3ccccc23)C(=O)N1` [Protoxin II-OMe], the IC50 (Nav1.7 [1]; [6]) is reported as 8.4 nM.
Work on `CSCC[C@@H]1NC(=O)CNC(=O)[C@H](CCC(=O)O)NC(=O)[C@@H]2CSSC[C@H](NC(=O)[C@@H](N)Cc3ccc(O)cc3)C(=O)N[C@@H](CCC(N)=O)C(=O)N[C@@H](CCCCN)C(=O)N[C@@H](Cc3c[nH]c4ccccc34)C(=O)N[C@@H](CCSC)C(=O)N[C@@H](Cc3c[nH]c4ccccc34)C(=O)N[C@@H]([C@@H](C)O)C(=O)N[C@H]3CSSC[C@H](NC(=O)[C@H](C(C)C)NC1=O)C(=O)N[C@@H](CCCNC(=N)N)C(=O)N[C@@H](CC(C)C)C(=O)N[C@@H](Cc1c[nH]c4ccccc14)C(=O)N[C@H](C(=O)N[C@@H](CCCCN)C(=O)N[C@@H](CCCCN)C(=O)N[C@@H](CCCCN)C(=O)N[C@@H](CC(C)C)C(=O)N[C@@H](Cc1c[nH]c4ccccc14)C(=O)O)CSSC[C@H](NC(=O)[C@H](CCCCN)NC(=O)[C@H](CCCNC(=N)N)NC(=O)[C@H](CCC(=O)O)NC(=O)[C@H](CO)NC(=O)[C@H](CC(=O)O)NC3=O)C(=O)N2` [Protoxin II] yielded an IC50 (Nav1.2 [2]) of 100 nM.
For `NC1=N[C@H](O)[C@H]2[C@H]3O[C@]4(O)O[C@@H]([C@@H](O)[C@@]2(N1)[C@@H]4O)[C@]3(O)CO` [TTX, tetrodotoxin], the IC50 (Nav1.2 [3]) is given as 10 nM, the IC50 (Nav1.1) is given as 10 nM and the IC50 (Nav1.8) is given as 50000 nM. For the same molecule, the IC50 (Nav1.9) was 1000 nM, the IC50 (Nav1.3) was 15 nM and the IC50 (Nav1.6) was 6 nM.
For YCQKWLWTCDSERKCCEDMVCRLWCKKRL [GsAF I], the IC50 (Nav1.2 [4]; [7]) is listed as 255 ± 43 nM and the IC50 (Nav1.7 [5]) is listed as 249 nM.
In the case of “YCQKWMWTCDEERKCCEGLVCRLWCKKKIEEG [VsTx II]”, the IC50 (Nav1.2 [4]; [7]) is listed as 42400 nM and the IC50 (Nav1.7 [5]) is listed as 9260 nM.
In the case of “YCQKWMWTCDEERKCCEGLVCRLWCKKKIEW [GsAF II]”, the IC50 (Nav1.2 [4]; [7]) is listed as 410 ± 20 nM and the IC50 (Nav1.7 [5]) is listed as 70 nM.
In the case of “YCQKWMWTCDEERKCCEGLVCRLWCKRIINM [GsMTx II/PaTX II]”, the IC50 (Nav1.2 [4]; [7]) is listed as 2700 nM and the IC50 (Nav1.7 [5]) is listed as 260 nM.
In the case of YCQKWMWTCDSARKCCEGLVCRLWCKKII [PaTx I], the IC50 (Nav1.2 [4]) is given as 5000 nM.
For “YCQKWMWTCDSERKCCEGYVCELWCKYNL [JxTx XII]”, the IC50 (Nav1.2 [4]) is given as 73900 nM.
For YCQKWMWTCDSKRACCEGLRCKLWCRKII [JzTx V], the IC50 (Nav1.2 [4]; [7]) is listed as 157 ± 20 nM.
In the case of YCQKWMWTCDSKRKCCEDMVCQLWCKKRL [GrTx I], the IC50 (Nav1.2 [4]; [7]) is given as 2690 nM and the IC50 (Nav1.7 [5]) is given as 1010 nM.
